Reference: ChEMBL document CHEMBL1142042, “Nonpeptide alpha(v)beta3 antagonists: identification of potent, chain-shortened 7-oxo RGD mimetics” (Bioorg Med Chem Lett, 2005)

What was measured:
[1] = In vitro inhibition of mouse osteoblast-like 1.8 cells transformation into osteoclasts; format: functional
Integrin alpha-V/beta-3 = Integrin alpha-V/beta-3 (Homo sapiens, UniProt P05106+P06756); assay: Inhibition of 2(S)-(4-125I-benzenesulphonylamino)-3-4-[2-(5,6,7,8-tetrahydro- [1,8]naphthyridin-2-yl)-ethyl]-benzoylamino-propionic acid binding to alphaV-beta3 integrin; format: protein-complex assay
Integrin alpha-V/beta-3, sequence (P05106 27-788 limits assumed): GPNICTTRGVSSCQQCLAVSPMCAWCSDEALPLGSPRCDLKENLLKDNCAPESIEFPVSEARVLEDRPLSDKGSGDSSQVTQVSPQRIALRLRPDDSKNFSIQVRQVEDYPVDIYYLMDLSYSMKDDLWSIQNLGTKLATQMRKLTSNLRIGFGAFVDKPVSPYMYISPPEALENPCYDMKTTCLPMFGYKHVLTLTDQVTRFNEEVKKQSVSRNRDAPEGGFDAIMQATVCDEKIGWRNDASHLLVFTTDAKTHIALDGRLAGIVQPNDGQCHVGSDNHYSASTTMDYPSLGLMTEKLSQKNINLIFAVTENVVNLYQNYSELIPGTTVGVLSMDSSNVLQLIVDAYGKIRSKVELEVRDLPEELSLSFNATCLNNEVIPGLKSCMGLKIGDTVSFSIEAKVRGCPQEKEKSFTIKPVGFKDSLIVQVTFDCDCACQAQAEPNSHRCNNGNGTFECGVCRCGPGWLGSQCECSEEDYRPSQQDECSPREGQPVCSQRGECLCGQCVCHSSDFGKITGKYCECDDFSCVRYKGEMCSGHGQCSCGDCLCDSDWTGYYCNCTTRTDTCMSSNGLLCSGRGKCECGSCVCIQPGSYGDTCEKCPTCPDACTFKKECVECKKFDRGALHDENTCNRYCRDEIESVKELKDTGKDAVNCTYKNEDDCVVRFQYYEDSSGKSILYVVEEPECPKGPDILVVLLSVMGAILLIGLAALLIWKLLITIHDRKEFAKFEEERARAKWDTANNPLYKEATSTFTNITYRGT
Integrin alpha-V/beta-3, sequence (P06756 31-889 limits assumed): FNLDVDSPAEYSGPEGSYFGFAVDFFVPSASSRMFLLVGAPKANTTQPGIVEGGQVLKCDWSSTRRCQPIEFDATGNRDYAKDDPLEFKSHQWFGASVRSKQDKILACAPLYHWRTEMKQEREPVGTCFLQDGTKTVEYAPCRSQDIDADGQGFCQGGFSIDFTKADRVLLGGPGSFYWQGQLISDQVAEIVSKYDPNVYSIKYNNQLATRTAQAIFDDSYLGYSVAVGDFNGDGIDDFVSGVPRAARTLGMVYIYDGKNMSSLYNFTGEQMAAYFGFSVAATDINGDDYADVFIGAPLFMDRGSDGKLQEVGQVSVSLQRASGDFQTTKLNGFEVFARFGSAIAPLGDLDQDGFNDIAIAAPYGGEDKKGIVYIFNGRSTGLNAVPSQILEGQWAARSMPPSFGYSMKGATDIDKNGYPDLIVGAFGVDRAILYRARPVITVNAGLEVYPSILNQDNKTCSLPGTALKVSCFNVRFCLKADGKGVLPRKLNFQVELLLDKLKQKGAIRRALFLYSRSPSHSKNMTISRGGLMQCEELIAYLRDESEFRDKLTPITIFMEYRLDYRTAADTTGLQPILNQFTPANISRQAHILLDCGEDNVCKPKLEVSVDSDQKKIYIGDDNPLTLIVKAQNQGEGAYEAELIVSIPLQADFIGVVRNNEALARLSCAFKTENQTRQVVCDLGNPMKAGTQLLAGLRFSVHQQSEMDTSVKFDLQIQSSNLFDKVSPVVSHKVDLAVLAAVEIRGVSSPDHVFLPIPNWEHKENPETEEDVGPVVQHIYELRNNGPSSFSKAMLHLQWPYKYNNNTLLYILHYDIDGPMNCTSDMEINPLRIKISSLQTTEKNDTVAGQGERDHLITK
Integrin alpha-V/beta-3, sequence (P06756 891-1048 limits assumed): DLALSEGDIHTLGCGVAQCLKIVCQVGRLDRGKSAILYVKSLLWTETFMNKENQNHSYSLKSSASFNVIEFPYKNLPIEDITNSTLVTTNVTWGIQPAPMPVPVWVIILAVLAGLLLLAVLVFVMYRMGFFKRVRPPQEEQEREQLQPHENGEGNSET

[2] = Oral bioavailability in dog (dose 1 mg/kg); format: ADME, organism-based, Canis lupus familiaris; details: in vivo
[3] = Clearance when dosed intravenously at 0.2 mpk to dogs; n = 2; format: ADME, organism-based, Canis lupus familiaris; details: dog, in vivo, iv, 0.2 mg/kg
[4] = Plasma half life when dosed orally at 1 mpk and intravenously at 0.2 mpk to dogs; n = 2; format: ADME, organism-based, Canis lupus familiaris; details: dog
[5] = Partition coefficient (logP); format: physicochemical; details: octanol/water

Row | IC50 [1] | IC50 (Integrin alpha-V/beta-3) | bioavailability [2] | clearance [3] | half-life [4] | logP [5] | SMILES
1 | 8 nM | 0.24 nM | 60% | 2.5 mL/min/kg | 6.1 h | 0.1 | COc1ccc([C@@H](CCC[C@H](O)CCc2ccc3c(n2)NCCC3)CC(=O)O)cn1
2 | 39 nM | – | – | 4 mL/min/kg | 9 h | – | COc1ccc([C@@H](CCCCCCc2ccc3c(n2)NCCC3)CC(=O)O)cn1
3 | 12 nM | 0.16 nM | 75% | 6.7 mL/min/kg | 7 h | 0 | COc1ccc([C@@H](CCCC(=O)CCc2ccc3c(n2)NCCC3)CC(=O)O)cn1
4 | 36 nM | 0.24 nM | – | – | – | 0 | COc1ccc([C@@H](CCC[C@@H](O)CCc2ccc3c(n2)NCCC3)CC(=O)O)cn1
